Laboratory results reported in patent US4065460A, “4,5,6,7-Tetrahydro-thieno[3,2-c]-pyridine derivatives and process for their preparation” (Parcor, priority 1975, dated 1977).

test system: mechanical stimulation (pressure forceps at the base of the tail); assay: Antalgic action, mechanical stimulation method according to Haffner; format: in vivo; conditions: 0.5 h; mouse, 100 mg/kg oral, after 30 min.; read-out: mean percent antalgia after 30 min.
Experimental: This method comprises placing a pressure forceps at the base of the tail of a mouse and recording the number of bites self-inflicted by the animal in its endeavour to remove the forceps. The decrease of the number of bites prior to and subsequently to oral administration of the test compound at a dosage of 100 mg/kg provides a measure of the antalgic activity of the derivatives of this invention.

Structure (SMILES) | inhibition in vivo at 100 mg/kg
CC(C)COC1CNCc2ccsc21 (centres unmarked) [Derivative 3, 7-Isobutoxy-4,5,6,7-tetrahydro-thieno[3,2-c]-pyridine] | 68%
COC1c2sccc2CNC1c1ccccc1 (centres unmarked) [Derivative 10, 7-Methoxy-6-phenyl-4,5,6,7-tetrahydro-thieno[3,2-c]-pyridine] | 73%
COC1(C)CNCc2ccsc21 (centres unmarked) [Derivative 5, 7-Methoxy-7-methyl-4,5,6,7-tetrahydro-thieno[3,2-c]-pyridine] | 67%
COC1CNCc2ccsc21 (centres unmarked) [Derivative 1, 7-Methoxy-4,5,6,7-tetrahydro-thieno[3,2-c]-pyridine] | 75%
CCOC1CNCc2ccsc21 (centres unmarked) [Derivative 2, 7-Ethoxy-4,5,6,7-tetrahydro-thieno[3,2-c]-pyridine] | 71%

same assay, conditions: mouse, 100 mg/kg oral, after 1 hr; read-out: mean percent antalgia after 1 hr

Structure (SMILES) | inhibition in vivo at 100 mg/kg
CC(C)COC1CNCc2ccsc21 (centres unmarked) [Derivative 3, 7-Isobutoxy-4,5,6,7-tetrahydro-thieno[3,2-c]-pyridine] | 60%
COC1c2sccc2CNC1c1ccccc1 (centres unmarked) [Derivative 10, 7-Methoxy-6-phenyl-4,5,6,7-tetrahydro-thieno[3,2-c]-pyridine] | 66%
COC1(C)CNCc2ccsc21 (centres unmarked) [Derivative 5, 7-Methoxy-7-methyl-4,5,6,7-tetrahydro-thieno[3,2-c]-pyridine] | 61%
COC1CNCc2ccsc21 (centres unmarked) [Derivative 1, 7-Methoxy-4,5,6,7-tetrahydro-thieno[3,2-c]-pyridine] | 63%
CCOC1CNCc2ccsc21 (centres unmarked) [Derivative 2, 7-Ethoxy-4,5,6,7-tetrahydro-thieno[3,2-c]-pyridine] | 66%

same assay, conditions: mouse, 100 mg/kg oral, after 2 hrs; read-out: mean percent antalgia after 2 hrs

Structure (SMILES) | inhibition in vivo at 100 mg/kg
CC(C)COC1CNCc2ccsc21 (centres unmarked) [Derivative 3, 7-Isobutoxy-4,5,6,7-tetrahydro-thieno[3,2-c]-pyridine] | 55%
COC1c2sccc2CNC1c1ccccc1 (centres unmarked) [Derivative 10, 7-Methoxy-6-phenyl-4,5,6,7-tetrahydro-thieno[3,2-c]-pyridine] | 60%
COC1(C)CNCc2ccsc21 (centres unmarked) [Derivative 5, 7-Methoxy-7-methyl-4,5,6,7-tetrahydro-thieno[3,2-c]-pyridine] | 55%
COC1CNCc2ccsc21 (centres unmarked) [Derivative 1, 7-Methoxy-4,5,6,7-tetrahydro-thieno[3,2-c]-pyridine] | 59%
CCOC1CNCc2ccsc21 (centres unmarked) [Derivative 2, 7-Ethoxy-4,5,6,7-tetrahydro-thieno[3,2-c]-pyridine] | 62%

same assay, conditions: mouse, 100 mg/kg oral, after 3 hrs; read-out: mean percent antalgia after 3 hrs

Structure (SMILES) | inhibition in vivo at 100 mg/kg
CC(C)COC1CNCc2ccsc21 (centres unmarked) [Derivative 3, 7-Isobutoxy-4,5,6,7-tetrahydro-thieno[3,2-c]-pyridine] | 48%
COC1c2sccc2CNC1c1ccccc1 (centres unmarked) [Derivative 10, 7-Methoxy-6-phenyl-4,5,6,7-tetrahydro-thieno[3,2-c]-pyridine] | 53%
COC1(C)CNCc2ccsc21 (centres unmarked) [Derivative 5, 7-Methoxy-7-methyl-4,5,6,7-tetrahydro-thieno[3,2-c]-pyridine] | 46%
COC1CNCc2ccsc21 (centres unmarked) [Derivative 1, 7-Methoxy-4,5,6,7-tetrahydro-thieno[3,2-c]-pyridine] | 51%
CCOC1CNCc2ccsc21 (centres unmarked) [Derivative 2, 7-Ethoxy-4,5,6,7-tetrahydro-thieno[3,2-c]-pyridine] | 59%

test system: carrageenin-induced edema; assay: Localized carrageenin-induced edema method (anti-inflammatory action); format: in vivo; conditions: Rattus norvegicus, po; rats, 100 mg/kg orally (1 hour prior, simultaneously, 1 hour and 2.5 hours after), after 1 hour; read-out: Percent anti-inflammatory activity after 1 hour
Experimental: a. Localized carrageenin-induced edema method.
0.1 ml of a 1% carrageenin solution is injected at time 0 in the metatarsal flexor muscles of the right hind limb of rats. The animals of the treated group are administered orally, additionally, 100 mg/kg of the test derivative, respectively 1 hour prior to and then simultaneously with the phlogogenic agent, and then 1 hour and 2.5 hours thereafter. The determinations effected with a ROCH micrometer at times 0, 1 hour, 2 hrs, 3 hrs and 5 hrs after carrageenin administration make it possible to determine, as a function of time, the percent anti-inflammatory activity.

Structure (SMILES) | inhibition in vivo at 100 mg/kg
CC(C)COC1CNCc2ccsc21 (centres unmarked) [Derivative 3, 7-Isobutoxy-4,5,6,7-tetrahydro-thieno[3,2-c]-pyridine] | 39%
COC1c2sccc2CNC1c1ccccc1 (centres unmarked) [Derivative 10, 7-Methoxy-6-phenyl-4,5,6,7-tetrahydro-thieno[3,2-c]-pyridine] | 37%
COC1(C)CNCc2ccsc21 (centres unmarked) [Derivative 5, 7-Methoxy-7-methyl-4,5,6,7-tetrahydro-thieno[3,2-c]-pyridine] | 39%
COC1CNCc2ccsc21 (centres unmarked) [Derivative 1, 7-Methoxy-4,5,6,7-tetrahydro-thieno[3,2-c]-pyridine] | 35%
CCOC1CNCc2ccsc21 (centres unmarked) [Derivative 2, 7-Ethoxy-4,5,6,7-tetrahydro-thieno[3,2-c]-pyridine] | 36%

same assay, conditions: Rattus norvegicus, po; rats, 100 mg/kg orally (1 hour prior, simultaneously, 1 hour and 2.5 hours after), after 2 hours; read-out: Percent anti-inflammatory activity after 2 hours

Structure (SMILES) | inhibition in vivo at 100 mg/kg
CC(C)COC1CNCc2ccsc21 (centres unmarked) [Derivative 3, 7-Isobutoxy-4,5,6,7-tetrahydro-thieno[3,2-c]-pyridine] | 48%
COC1c2sccc2CNC1c1ccccc1 (centres unmarked) [Derivative 10, 7-Methoxy-6-phenyl-4,5,6,7-tetrahydro-thieno[3,2-c]-pyridine] | 50%
COC1(C)CNCc2ccsc21 (centres unmarked) [Derivative 5, 7-Methoxy-7-methyl-4,5,6,7-tetrahydro-thieno[3,2-c]-pyridine] | 49%
COC1CNCc2ccsc21 (centres unmarked) [Derivative 1, 7-Methoxy-4,5,6,7-tetrahydro-thieno[3,2-c]-pyridine] | 41%
CCOC1CNCc2ccsc21 (centres unmarked) [Derivative 2, 7-Ethoxy-4,5,6,7-tetrahydro-thieno[3,2-c]-pyridine] | 44%

same assay, conditions: Rattus norvegicus, po; rats, 100 mg/kg orally (1 hour prior, simultaneously, 1 hour and 2.5 hours after), after 5 hours; read-out: Percent anti-inflammatory activity after 5 hours

Structure (SMILES) | inhibition in vivo at 100 mg/kg
CC(C)COC1CNCc2ccsc21 (centres unmarked) [Derivative 3, 7-Isobutoxy-4,5,6,7-tetrahydro-thieno[3,2-c]-pyridine] | 58%
COC1c2sccc2CNC1c1ccccc1 (centres unmarked) [Derivative 10, 7-Methoxy-6-phenyl-4,5,6,7-tetrahydro-thieno[3,2-c]-pyridine] | 56%
COC1(C)CNCc2ccsc21 (centres unmarked) [Derivative 5, 7-Methoxy-7-methyl-4,5,6,7-tetrahydro-thieno[3,2-c]-pyridine] | 57%
COC1CNCc2ccsc21 (centres unmarked) [Derivative 1, 7-Methoxy-4,5,6,7-tetrahydro-thieno[3,2-c]-pyridine] | 50%
CCOC1CNCc2ccsc21 (centres unmarked) [Derivative 2, 7-Ethoxy-4,5,6,7-tetrahydro-thieno[3,2-c]-pyridine] | 52%

test system: not listed separately; assay: Acute intravenous toxicity (LD50, method according to MILLER and TAINTER); conditions: mouse, in vivo, Swiss mice, read-out: LD50 /24hrs/kg of the animal

Structure (SMILES) | LD50 at 24 h
CC(C)COC1CNCc2ccsc21 (centres unmarked) [Derivative 3, 7-Isobutoxy-4,5,6,7-tetrahydro-thieno[3,2-c]-pyridine] | 180 mg/kg
COC1c2sccc2CNC1c1ccccc1 (centres unmarked) [Derivative 10, 7-Methoxy-6-phenyl-4,5,6,7-tetrahydro-thieno[3,2-c]-pyridine] | 195 mg/kg
COC1(C)CNCc2ccsc21 (centres unmarked) [Derivative 5, 7-Methoxy-7-methyl-4,5,6,7-tetrahydro-thieno[3,2-c]-pyridine] | 138 mg/kg
COC1CNCc2ccsc21 (centres unmarked) [Derivative 1, 7-Methoxy-4,5,6,7-tetrahydro-thieno[3,2-c]-pyridine] | 262 mg/kg
CCOC1CNCc2ccsc21 (centres unmarked) [Derivative 2, 7-Ethoxy-4,5,6,7-tetrahydro-thieno[3,2-c]-pyridine] | 145 mg/kg

test system: Ovalbumin-induced systemic edema; assay: Ovalbumin-induced systemic edema method (anti-inflammatory action); format: in vivo; conditions: Rattus norvegicus, po; rats, 100 mg/kg orally (1 hour prior and simultaneously), with respect to control group, after 2 hrs; read-out: Percent decrease of the edema reaction after 2 hrs
Experimental: b. Ovalbumin-induced systemic edema method
Rats are administered a simultaneous intraperitoneal injection of 1 ml ovalbumin and 0.5 ml of a 1% Evans Blue solution. The animals of the treated group are additionally administered orally 100 mg/kg of the test derivative, one hour prior to ovalbumin administration and then simultaneously with said ovalbumin administration. The intensity of the phenomenon thus induced is rated according to a scale from 1 to 5, according to the progress of the inflammatory syndrome. The measurements are effected after 2 hours and after 3 hours. Thus are determined the mean intensity of the edema and the percent decrease of the edema reaction with respect to the control group.

Structure (SMILES) | inhibition in vivo at 100 mg/kg
CC(C)COC1CNCc2ccsc21 (centres unmarked) [Derivative 3, 7-Isobutoxy-4,5,6,7-tetrahydro-thieno[3,2-c]-pyridine] | 51%
COC1c2sccc2CNC1c1ccccc1 (centres unmarked) [Derivative 10, 7-Methoxy-6-phenyl-4,5,6,7-tetrahydro-thieno[3,2-c]-pyridine] | 48%
COC1(C)CNCc2ccsc21 (centres unmarked) [Derivative 5, 7-Methoxy-7-methyl-4,5,6,7-tetrahydro-thieno[3,2-c]-pyridine] | 49%
COC1CNCc2ccsc21 (centres unmarked) [Derivative 1, 7-Methoxy-4,5,6,7-tetrahydro-thieno[3,2-c]-pyridine] | 51%
CCOC1CNCc2ccsc21 (centres unmarked) [Derivative 2, 7-Ethoxy-4,5,6,7-tetrahydro-thieno[3,2-c]-pyridine] | 48%

same assay, conditions: Rattus norvegicus, po; rats, 100 mg/kg orally (1 hour prior and simultaneously), with respect to control group, after 3 hrs; read-out: Percent decrease of the edema reaction after 3 hrs

Structure (SMILES) | inhibition in vivo at 100 mg/kg
CC(C)COC1CNCc2ccsc21 (centres unmarked) [Derivative 3, 7-Isobutoxy-4,5,6,7-tetrahydro-thieno[3,2-c]-pyridine] | 63%
COC1c2sccc2CNC1c1ccccc1 (centres unmarked) [Derivative 10, 7-Methoxy-6-phenyl-4,5,6,7-tetrahydro-thieno[3,2-c]-pyridine] | 57%
COC1(C)CNCc2ccsc21 (centres unmarked) [Derivative 5, 7-Methoxy-7-methyl-4,5,6,7-tetrahydro-thieno[3,2-c]-pyridine] | 60%
COC1CNCc2ccsc21 (centres unmarked) [Derivative 1, 7-Methoxy-4,5,6,7-tetrahydro-thieno[3,2-c]-pyridine] | 60%
CCOC1CNCc2ccsc21 (centres unmarked) [Derivative 2, 7-Ethoxy-4,5,6,7-tetrahydro-thieno[3,2-c]-pyridine] | 59%
